Assay results as given in article PMC3573960 (Molecular Neurodegeneration, 2012).

Legend:
[1] = tested on: Aph1AL containing γ-secretase complexes; assay: Cell-free AICD production from APP β-CTF (Western blot); format: biochemical, murine; settings: 10 μM
Procedure: DAPT was used as a reference positive control for the assay. For each assay condition, a 5-μL microsomal fraction, containing 1% CHAPSO (3-[(3-cholamidopropyl)dimethylammonio]-2-hydroxy-1-propanesulfonate) from murine embryonic fibroblasts (MEF) lacking the Aph-1A, Aph-1B, and Aph-1C genes (triple knock out) and rescued with Aph-1AL, was prepared in a reaction mixture of 5 μL substrate (recombinant APP β-CTF 3-Flag-tagged) at 0.8 μM, 0.0125% phosphatidylethanolamine, 0.1%, phosphatidylcholine, 0.05% sphingomyelin, and 8.9 μL PIPES (piperazine-N,N′-bis[−ethanesulfonic acid]) buffer. […] For detection of AICD, one-half of the reaction mixture was purified by a methanol-chloroform extraction in order to remove lipids and hydrophobic proteins (e.g., APP β-CTF). This purified fraction was further analyzed by SDS-PAGE and Western blotting. AICD was detected with an ANTI-FLAG® antibody (Sigma-Aldrich). The other half of the reaction mixture was used to analyze the levels of Aβ1-40 and Aβ1-42 by AlphaLisa (Perkin Elmer, Waltham, MA).

[2] = tested on: Tg2576 mice; set-up: method as in PMID 16192379; settings: 100 mg/kg p.o., 3 h before training; cited from earlier work
[3] = tested on: Aβ42; set-up: method as in PMID 15304503; settings: cited from earlier work
[4] = tested on: γ-secretase; assay: APP CTF accumulation in H4-APP751 cell lysates (Western blot); format: cell-based, human; settings: H4-APP751 cells, 16 h
Source text: Cells were lysed in situ and the resulting lysate cleared of nuclei by centrifugation, as described elsewhere. Samples were fractionated by SDS-PAGE on a 12% NuPage gel (Invitrogen), transferred to a nitrocellulose membrane, and immunoblotted with an anti-APP-CTF antibody (Sigma-Aldrich).

[5] = tested on: γ-secretase (EphA4); assay: EphA4 CTF accumulation in rat primary neocortical cultures (Western blot); settings: 24 h, as low as 100 nM
Procedure: Protein concentration of the lysate was determined by the BCA method, and 30 μg of total protein were loaded on a 10% Bis-Tris gel (Invitrogen). EphA4 CTF was visualized using an anti-EphA4-CTF antibody (Abnova, Walnut, CA) and an IRDye800CW® secondary antibody (Rockland Immunochemicals, Inc., Gilbertsville, PA). Detection was performed using an Odyssey scanner (LiCor Biosciences) and blots quantified using ImageJ software (available at http://rsbweb.nih.gov/ij).

[6] = tested on: AD patients; set-up: method as in PMID 18695053, PMID 21222550, PMID 22323718; settings: cited from earlier work
[7] = tested on: Tg2576 mice; set-up: method as in PMID 10908610, PMID 12930788; settings: diet of 375 ppm for 4–6 months; cited from earlier work

SMILES: C[C@H](NC(=O)Cc1cc(F)cc(F)c1)C(=O)N[C@H](C(=O)OC(C)(C)C)c1ccccc1 [DAPT, N-(N-(3,5-difluorophenacetyl)-L-alanyl)-S-phenylglycine t-butyl ester, reference compound]
- production of AICD from APP β-CTF [1]: almost completely abolished
- CFC cognitive deficit [2]: rapidly improved the CFC cognitive deficit

SMILES: C[C@@H](C(=O)O)c1ccc(-c2ccccc2)c(F)c1 [Flurizan™]
- IC50 [3]: > 300 µM

SMILES: C[C@H](NC(=O)[C@@H](O)c1cc(F)cc(F)c1)C(=O)N[C@@H]1C(=O)N(C)c2ccccc2-c2ccccc21 [LY-411,575, reference compound]
- Full length APP ([4]; 1 nM to 10 μM): not altered
- accumulation of APP α- or β-CTFs ([4]; concentration as low as 1 nM): led to their accumulation
- EphA4 CTF accumulation [5]: led to EphA4 CTF accumulation

SMILES: CC(C)[C@H](O)C(=O)N[C@@H](C)C(=O)N[C@@H]1C(=O)N(C)CCc2ccccc21 [Semegacestat]
- toxicities in clinical trials in AD [6]: drug-related rashes, lightening of hair color, skin cancer, and more importantly, worsening of cognition and the ability to perform activities of daily living

SMILES: CC(C)Cc1ccc(C(C)C(=O)O)cc1 (centres unmarked) [ibuprofen]
- amyloid plaque load and inflammatory mediators [7]: marked decrease
